According to patent US20080070987A1, “META-XYLYLENEDIAMINE VANADATE SALTS” (priority 2006, published 2008):

Legend:
[1] = tested on: streptozotocin-induced diabetic rats; test: Chronic oral treatment of streptozotocin-induced diabetic rats, glycemia; type: in vivo, rat; conditions: for glycemia: oral, after the dosage increase to 10 μmol/kg/day; for effect on glycemia over the whole oral treatment, in words: streptozotocin (45 mg/kg) diabetic rats, daily oral administration for 17 days
Description: FIG. 4 is a graphical illustration of the chronic and oral treatment with hexaquis(benzylammonium) decavanadate on glycemia of diabetic rats by estreptozotocine. In FIG. 4, [G] corresponds to the blood concentration of glucose (expressed in mg/dl) measured at different days of treatment (t/d). Diabetic rats were treated with a single daily oral dose of hexaquis(benzylammonium) decavanadate (5 μmol/kg/day between day 0 and day 7 marked with an arrow, and 10 μmol/kg/day from 7 days of treatment) (black squares) or with identical dose of sodium decavanadate (black diamonds). Glycemia in non-diabetic rats is also represented in the figure (black triangles).
Diabetes was induced in rats by intravenous administration of streptozotocin, and subsequently, a hexaquis(benzylammonium) decavanadate or sodium decavanadate unique dose was administered to the rats. […] After seven days of treatment, the dose was increased at 10 μmol/kg/day which was maintained for an additional ten days. […] Thus, glycemia in sodium decavanadate treated rats was approximately 450 mg/dl and glycemia of hexaquis(benzylammonium) decavanadate treated rats was approximately 250 mg/dl.
Male Wistar rats weighting 180-220 g were purchased from Harlan (Interfauna Ibérica S.A., Spain). Diabetes was induced by a single intraperitoneal injection of a freshly prepared solution of streptozotocin (in some studies the dose was 45 mg/kg body weight and in some others 100 mg/kg body weight dissolved in 50 mM citrate buffer, pH 4.5). Only diabetic animals with glycemia above 300 mg/dl were used. The animals were housed in animal quarters at 22° C. with a 12 h light/12 h dark cycle and were fed ad libitum. All procedures used were approved by the animal ethical committee of the University of Barcelona, Spain. Male mice C57 BL/Ks bearing the db/db mutation (Jackson Laboratories, Bar Harbor, Me.) were purchased from Harlan France (Gannat, France). C57BL/6J male mice were assigned for 16 weeks to very high-fat diet containing (in kcal): 72% from fat, 28% from proteins and <1% from carbohydrates (Burcelin et al., 2002, Am. J. Physiol. Endocrinol. Metab 282: E834-E842).
Osmotic minipumps delivering B6V10 (2.5 μmol/kg body wt/day) or decavanadate (2.5 μmol/kg body wt/day) were implanted subcutaneously in diabetic rats anaesthetised by ketamine hydrochloride (95 mg/kg) and xylasine (10 mg/kg). […] Glycemia was measured on arterio-venous blood collected from the tail vessels at 09:00 am for two weeks, before the administration of vanadate. Insulin concentrations were determined before and after treatment. In another set of experiments, B6V10 was orally administered at a single dose of 5 μmol/kg/day during the first week and 10 μmol/kg/day during 2 additional weeks by gastric gavage. A control group received the corresponding decavanadate salt in the absence of benzylamine. At the end of the treatment, animals were sacrificed and the liver, fat pad, heart and lung were kept at −80° C. and the plasma at −20° C. until their use for in vitro analysis.
In glucose tolerance tests and in chronic treatments, circulating glucose concentrations were determined by a rapid glucose analyser (Accutrend® Sensor Comfort, Roche, Basel. Switzerland). Plasma insulin (IRI) concentration was determined by ELISA method using a kit obtained from Crystal Chem. Inc. (Downers Grove, Ill.). Plasma triglycerides (Biosystems, Barcelona, Spain) and NEFAS (Wako Chemicals, Neuss, Germany) were determined with standard […] methods.
Chronic in vivo efficacy of B6V10 was evaluated in streptozotocin-induced diabetic rats and in db/db mice. Streptozotocin-induced (45 mg/kg) diabetic rats were subcutaneously treated with hexaquis(benzylammonium) decavanadate (2.5 μmol/kg) (B6V10, solid squares, FIG. 8A) or with decavanadate (2.5 μmol/kg) (V10, open circles, FIG. 8A) delivered subcutaneously by osmotic minipumps implanted in the dorsal region. Diabetic rats were also sham-operated (untreated, solid diamonds, FIG. 8A). […]

[2] = tested on: protein kinase B / insulin receptor phosphorylation; test: Intracellular insulin signalling in isolated rat adipocytes (protein kinase B and insulin receptor phosphorylation); type: cell-based, Wistar rats
Description: Isolated fat cells were disrupted for total membrane preparation by hypo-osmotic lysis in a 20 mM HES buffer and an antiprotease and antiphosphatase cocktail as reported by Abella et al. (2003, Diabetes 52: 1004-1013). Protein concentrations were determined by the Bradford method (Bradford, 1976, Anal. Biochem. 72: 248-254) with gamma-globulin as protein concentration standard. Immunoprecipitation and immunoblot assays were performed as previously described by Abella et al. (2004, Diabetologia 47: 429-438) with the use of a monoclonal antiphosphotyrosine antibody for the immunoprecipitation and an anti-insulin receptor antibody for immunobloting, respectively. SDS-polyacrylamide gel electrophoresis was performed on membrane proteins following conventional procedures. Proteins were transferred to Immobilon and immunoblotting was performed as reported by Castello et al. (1994, J. Biol. Chem. 269: 5905-5912).
The mechanism of action of B6V10 was investigated in isolated rat adipocytes. Adipose cells from Wistar rats were incubated for different times in the presence of 25 μM hexaquis(benzylammonium) decavanadate (B6V10). Cells were also incubated in the presence of insulin (100 nM, 45 min), decavanadate (25 μM, 45 min) or semicarbazide (1 mM, 45 min). Subsequently, 2-deoxyglucose uptake (results shown in FIG. 7A), tyrosine phosphorylation of insulin receptor (FIG. 7B), phospho-Thr^308-protein kinase B (FIG. 7C) and phospho-Ser^473-protein kinase B (FIG. 7D) was measured. […] The phosphorylation of protein kinase B induced by B6V10 was parallel to activation of glucose transport (FIGS. 7C and 7D).
The effects of incubation with semicarbazide or phosphatidylinositol 3-kinase inhibitors were also investigated. Adipose cells were incubated with B6V10 (25 μM, 45 min) in the absence or presence of wortmannin (2 μM, 45 min), LY294002 (10 μM, 45 min) or semicarbazide (1 mM, 45 min) and thereafter 2-deoxyglucose uptake was determined during 5 min.

[3] = tested on: isolated mouse adipocytes; test: Glucose (2-deoxyglucose) transport in isolated mouse adipocytes; type: cell-based, FVB mice; conditions: 100 μM
Description: Adipose cells from FVB mice were incubated for 45 minutes in basal conditions (Basal) or in the presence of 100 nM insulin (Ins), and different concentrations of hexaquis(benzylammonium) decavanadate (B6V10) in the absence or in the presence of 1 mM semicarbazide (SCZ) and thereafter, 2-DG transport was measured over 5 min.

Row | Substance | glycemia [1] | effect on glycemia over the whole oral treatment, in words [1] | effect on glycemia over the whole oral treatment, in words ([1]; listed as sodium decavanadate) | phosphorylation (activation) of protein kinase B, in words ([2]; isolated rat adipocytes, 25 μM) | stimulation of glucose transport (% increase) [3] [%] | time at which decrease of hyperglycemia was detected ([1]; oral 5 μmol/kg/day) | effect on hyperglycemia, in words ([1]; oral 5 μmol/kg/day for seven days) | effect of the dosage increase on glycemia, in words ([1]; oral 10 μmol/kg/day for an additional ten days after seven days at 5 μmol/kg/day) | effect of semicarbazide on protein kinase B phosphorylation induced by the compound ([2]; 1 mM semicarbazide, 45 min) | earliest time at which protein kinase B phosphorylation was detectable ([2]; isolated rat adipocytes, 25 μM) [min] | tyrosine phosphorylation of insulin receptors ([2]; isolated rat adipocytes, 25 μM)
1 | sodium decavanadate [Example V10, reference compound] | approximately 450 mg/dl | did not alter glycemia | not affected substantially | not observed | – | – | – | – | – | – | –
2 | hexaquis(benzylammonium) decavanadate [Example B6V10] | approximately 250 mg/dl | significant correction of hyperglycemia | – | rapidly stimulated protein kinase B | 93 | after but two days of treatment | moderate decrease of hyperglycemia | additional decrease in glycemia | blocked by semicarbazide | 2.5 | undetectable
